From patent US20220079924A1, “GLUCOCORTICOID RECEPTOR MODULATORS” (ORIC Pharmaceuticals, Inc., priority 2018, published 2022)

Target: T1, GR (Homo sapiens, UniProt P04150)
T1 construct: expressed in transfected cells; host or cells: CHO-K1 (CHO-K1-GR-MMTV-Luc reporter cells)
T1 sequence (P04150 1-777): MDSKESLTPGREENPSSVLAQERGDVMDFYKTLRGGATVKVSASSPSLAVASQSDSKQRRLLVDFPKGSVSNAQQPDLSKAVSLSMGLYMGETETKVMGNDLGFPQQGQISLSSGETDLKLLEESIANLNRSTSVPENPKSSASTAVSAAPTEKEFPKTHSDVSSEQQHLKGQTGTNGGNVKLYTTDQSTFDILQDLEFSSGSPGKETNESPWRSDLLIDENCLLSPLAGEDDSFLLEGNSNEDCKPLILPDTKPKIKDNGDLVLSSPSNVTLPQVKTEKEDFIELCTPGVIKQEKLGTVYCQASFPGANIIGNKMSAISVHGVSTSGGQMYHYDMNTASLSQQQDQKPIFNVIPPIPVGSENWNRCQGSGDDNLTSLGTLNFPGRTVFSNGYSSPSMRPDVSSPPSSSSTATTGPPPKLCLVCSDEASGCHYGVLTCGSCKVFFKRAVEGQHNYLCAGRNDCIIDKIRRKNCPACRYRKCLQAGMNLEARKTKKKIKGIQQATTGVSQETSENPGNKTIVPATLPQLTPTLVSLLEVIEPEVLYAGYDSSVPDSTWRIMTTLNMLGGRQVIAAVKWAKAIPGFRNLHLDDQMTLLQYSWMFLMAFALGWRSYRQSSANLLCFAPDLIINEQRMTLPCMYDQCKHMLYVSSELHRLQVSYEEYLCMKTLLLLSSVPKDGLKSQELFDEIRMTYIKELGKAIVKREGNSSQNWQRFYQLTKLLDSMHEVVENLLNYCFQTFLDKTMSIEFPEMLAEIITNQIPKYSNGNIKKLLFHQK
Experiment: In Vitro GR Luciferase Reporter Assay (antagonist assay)
Type: cell-based
Details: CHO-K1-GR-MMTV-Luc reporter cells, 10 nM Dexamethasone, 18-24 hours
Method: Example A: In Vitro GR Luciferase Reporter Assay
Cell Line: CHO-K1-GR-MMTV-Luc reporter cells
Culture Media: DMEM (with phenol red)+10% FBS
Assay Media: DMEM (without phenol red)+10% CSS
Culture CHO-K1-GR-MMTV-Luc reporter cells in T175 flasks in Culture Media at conditions less than 90% confluence.
Using Bravo (Agilent) liquid handler:
200× DMSO 1:3 serial dilutions of control and test compounds in 96-well non-sterile V bottom plate in DMSO, 12 points for each compound were prepared.
Prepared 5× compound serial dilutions: Add 97.5 μL/well of Assay Media into 96-well non-sterile V bottom plate then added 2.5 ul of 200× concentration of compounds and mix well.
Seeded cells for Antagonist Assay: 5200 CHO-K1-GR-MMTV-Luc reporter cells were seeded in Greiner #781080 flat clear bottom 384-well white TC plate in 20 ul of Assay Media containing 12.5 nM Dexamethasone (final concentration=10 nM).
Added compounds: 5 μl of 5× compounds were added to appropriate wells and followed with a quick spin (1000 rpm, 10 sec) to bring media and cells to the bottom of plate. The plates were covered with SealMate film to avoid evaporation and placed in 37° C. incubator for approximately 18-24 hours.
Read plates: Equilibrate appropriate amount of Promega OneGlo luciferase reagent to room temperature. Remove the plates from incubator and add 25 uL of OneGlo reagent/well by Bravo and read the plates on Tecan Spark plate reader within 15 minutes.
The ability of the compounds disclosed herein to inhibit GR activity was quantified and the respective IC50 value was determined. Table 1 provides the cellular IC50 values of compounds disclosed herein.

Structure (SMILES): C[C@H]([C@H]1CCC2=Cc3c(cnn3-c3ccc(F)cc3)C[C@]2(C(=O)c2ncc(C(F)(F)F)s2)C1)S(=O)(=O)c1cnn(C)c1 (single isomer, unassigned) [Example 9, ((4aR,6S)-1-(4-Fluorophenyl)-6-((R)-1-((1-methyl-1H-pyrazol-4-yl)sulfonyl)ethyl)-1,4,5,6,7,8-hexahydro-4aH-benzo[f]indazol-4a-yl)(5-(trifluoromethyl)thiazol-2-yl)methanone or ((4aR,6S)-1-(4-fluorophenyl)-6-((S)-1-((1-methyl-1H-pyrazol-4-yl)sulfonyl)ethyl)-1,4,5,6,7,8-hexahydro-4aH-benzo[f]indazol-4a-yl)(5-(trifluoromethyl)thiazol-2-yl)methanone]
- IC50: ≤ 100 nM

Structure (SMILES): C[C@@H]([C@H]1CCC2=Cc3c(cnn3-c3ccc(F)cc3)C[C@]2(C(=O)c2ncc(C(F)(F)F)s2)C1)S(=O)(=O)c1cnn(C)c1 (single isomer, unassigned) [Example 10, ((4aR,6S)-1-(4-Fluorophenyl)-6-((R)-1-((1-methyl-1H-pyrazol-4-yl)sulfonyl)ethyl)-1,4,5,6,7,8-hexahydro-4aH-benzo[f]indazol-4a-yl)(5-(trifluoromethyl)thiazol-2-yl)methanone or ((4aR,6S)-1-(4-fluorophenyl)-6-((S)-1-((1-methyl-1H-pyrazol-4-yl)sulfonyl)ethyl)-1,4,5,6,7,8-hexahydro-4aH-benzo[f]indazol-4a-yl)(5-(trifluoromethyl)thiazol-2-yl)methanone]
- IC50: ≤ 100 nM

Structure (SMILES): Cn1cnc(S(=O)(=O)N(C2CC2)[C@H]2CCC3=Cc4c(cnn4-c4ccc(F)cc4)C[C@]3(C(=O)c3ncc(C(C)(C)C)s3)C2)c1 [Example 1, N-((4aS,6S)-4a-(5-(tert-Butyl)thiazole-2-carbonyl)-1-(4-fluorophenyl)-4,4a,5,6,7,8-hexahydro-1H-benzo[f]indazol-6-yl)-N-cyclopropyl-1-methyl-1H-imidazole-4-sulfonamide]
- IC50: ≤ 100 nM

Structure (SMILES): Cn1cnc(S(=O)(=O)N(C2CC2)[C@H]2CCC3=Cc4c(cnn4-c4ccc(F)cc4)C[C@]3(C(=O)c3cc(F)ccn3)C2)c1 [Example 2, N-Cyclopropyl-N-((4aS,6S)-1-(4-fluorophenyl)-4a-(4-fluoropicolinoyl)-4,4a,5,6,7,8-hexahydro-1H-benzo[f]indazol-6-yl)-1-methyl-1H-imidazole-4-sulfonamide]
- IC50: ≤ 100 nM

Structure (SMILES): Cn1cc(S(=O)(=O)N(C2CC2)[C@H]2CCC3=Cc4c(cnn4-c4ccc(F)nc4)C[C@]3(C(=O)c3cc(F)ccn3)C2)cn1 [Example 3, N-Cyclopropyl-N-((4aS,6S)-4a-(4-fluoropicolinoyl)-1-(6-fluoropyridin-3-yl)-4,4a,5,6,7,8-hexahydro-1H-benzo[f]indazol-6-yl)-1-methyl-1H-pyrazole-4-sulfonamide]
- IC50: ≤ 100 nM

Structure (SMILES): Cn1cnc(S(=O)(=O)N(CC(F)(F)F)[C@H]2CCC3=Cc4c(cnn4-c4ccc(F)cc4)C[C@]3(C(=O)c3cc(F)ccn3)C2)n1 [Example 4, N-((4aS,6S)-1-(4-Fluorophenyl)-4a-(4-fluoropicolinoyl)-4,4a,5,6,7,8-hexahydro-1H-benzo[f]indazol-6-yl)-1-methyl-N-(2,2,2-trifluoroethyl)-1H-1,2,4-triazole-3-sulfonamide]
- IC50: ≤ 100 nM

Structure (SMILES): Cn1cc(S(=O)(=O)N(CCF)[C@H]2CCC3=Cc4c(cnn4-c4ccc(F)cc4)C[C@]3(C(=O)c3cc(F)ccn3)C2)cn1 [Example 5, N-(2-Fluoroethyl)-N-((4aS,6S)-1-(4-fluorophenyl)-4a-(4-fluoropicolinoyl)-4,4a,5,6,7,8-hexahydro-1H-benzo[f]indazol-6-yl)-1-methyl-1H-pyrazole-4-sulfonamide]
- IC50: ≤ 100 nM

Structure (SMILES): CC(C)N([C@H]1CCC2=Cc3c(cnn3-c3ccc(F)cn3)C[C@]2(C(=O)c2cc(C(F)(F)F)ccn2)C1)S(=O)(=O)c1cnn(C)c1 [Example 6, N-((4aS,6S)-1-(5-Fluoropyridin-2-yl)-4a-(4-(trifluoromethyl)picolinoyl)-4,4a,5,6,7,8-hexahydro-1H-benzo[f]indazol-6-yl)-N-isopropyl-1-methyl-1H-pyrazole-4-sulfonamide]
- IC50: ≤ 100 nM

Structure (SMILES): Cn1cnc(S(=O)(=O)[C@H]2CCC3=Cc4c(cnn4-c4ccc(F)cc4)C[C@]3(C(=O)c3ccc(C4CC4)cn3)C2)n1 [Example 7, (5-Cyclopropylpyridin-2-yl)((4aS,6S)-1-(4-fluorophenyl)-6-((1-methyl-1H-1,2,4-triazol-3-yl)sulfonyl)-1,4,5,6,7,8-hexahydro-4aH-benzo[f]indazol-4a-yl)methanone]
- IC50: ≤ 100 nM

Structure (SMILES): Cn1ccc(S(=O)(=O)C(C)(C)[C@H]2CCC3=Cc4c(cnn4-c4ccc(F)cc4)C[C@]3(C(=O)c3cc(F)ccn3)C2)n1 [Example 8, ((4aR,6S)-1-(4-Fluorophenyl)-6-(2-((1-methyl-1H-pyrazol-3-yl)sulfonyl)propan-2-yl)-1,4,5,6,7,8-hexahydro-4aH-benzo[f]indazol-4a-yl)(4-fluoropyridin-2-yl)methanone]
- IC50: ≤ 100 nM

Structure (SMILES): Cn1cnc(S(=O)(=O)N(C2CC2)[C@H]2CCC3=Cc4c(cnn4-c4ccc(F)nc4)C[C@]3(C(=O)c3cc(C(F)(F)F)ccn3)C2)n1 [Example 11, N-cyclopropyl-N-((4aS,6S)-1-(6-fluoropyridin-3-yl)-4a-(4-(trifluoromethyl)picolinoyl)-4,4a,5,6,7,8-hexahydro-1H-benzo[f]indazol-6-yl)-1-methyl-1H-1,2,4-triazole-3-sulfonamide]
- IC50: ≤ 100 nM

Structure (SMILES): Cn1cc(S(=O)(=O)N(CC(F)F)[C@H]2CCC3=Cc4c(cnn4-c4ccc(F)cc4)C[C@]3(C(=O)c3ncc(C(F)(F)F)s3)C2)cn1 [Example 12]
- IC50: ≤ 100 nM

Structure (SMILES): Cn1cc(S(=O)(=O)N(C2CC(F)(F)C2)[C@H]2CCC3=Cc4c(cnn4-c4ccc(F)cc4)C[C@]3(C(=O)c3cc(Cl)ccn3)C2)cn1 [Example 13]
- IC50: ≤ 100 nM

Structure (SMILES): Cn1cnc(S(=O)(=O)N([C@H]2CCC3=Cc4c(cnn4-c4ccc(F)cc4)C[C@]3(C(=O)c3ncc(C(F)(F)F)s3)C2)[C@H]2C[C@@H](C#N)C2)n1 [Example 14]
- IC50: ≤ 100 nM

Structure (SMILES): Cn1cc(S(=O)(=O)C[C@H]2CCC3=Cc4c(cnn4-c4ccc(F)cc4)C[C@]3(C(=O)c3cc(F)ccn3)C2)cn1 [Example 15]
- IC50: ≤ 100 nM

Structure (SMILES): Cn1cc(S(=O)(=O)N(C2CC2)[C@H]2CCC3=Cc4c(cnn4-c4ccc(F)nc4)C[C@]3(C(=O)c3ncc(C(F)(F)F)s3)C2)cn1 [Example 16]
- IC50: ≤ 100 nM

Structure (SMILES): Cn1ncnc1S(=O)(=O)[C@H]1CCC2=Cc3c(cnn3-c3ccc(F)cc3)C[C@]2(C(=O)c2cc(C(F)(F)F)ccn2)C1 [Example 17]
- IC50: ≤ 100 nM

Structure (SMILES): Cn1cc(S(=O)(=O)N(C2CC2)[C@H]2CCC3=Cc4c(cnn4-c4ccc(F)nc4)C[C@]3(C(=O)c3cc(C(F)(F)F)ccn3)C2)cn1 [Example 18]
- IC50: ≤ 100 nM

Structure (SMILES): O=C(c1cc(C(F)(F)F)ccn1)[C@]12Cc3cnn(-c4ccc(F)nc4)c3C=C1CC[C@H](N(C1CC1)S(=O)(=O)c1ccc(F)cc1)C2 [Example 19]
- IC50: ≤ 100 nM

Structure (SMILES): CN(C)C(=O)CN([C@H]1CCC2=Cc3c(cnn3-c3ccc(F)cc3)C[C@]2(C(=O)c2cc(C(F)(F)F)ccn2)C1)S(=O)(=O)c1ccn(C)n1 [Example 21]
- IC50: ≤ 100 nM

Structure (SMILES): Cn1cnc(S(=O)(=O)N(C2CC2)[C@H]2CCC3=Cc4c(cnn4-c4ccc(F)cc4)C[C@]3(C(=O)c3csc(C(F)(F)F)n3)C2)n1 [Example 22]
- IC50: ≤ 100 nM

Structure (SMILES): O=C(c1cc(F)ccn1)[C@]12Cc3cnn(-c4ccc(F)cc4)c3C=C1CC[C@H](N(C1CC(F)(F)C1)S(=O)(=O)c1ccc(F)cc1)C2 [Example 23]
- IC50: ≤ 100 nM

Structure (SMILES): O=C(c1cc(Cl)ccn1)[C@]12Cc3cnn(-c4ccc(F)cc4)c3C=C1CC[C@H](N(C1CC(F)(F)C1)S(=O)(=O)c1ccc(F)cc1)C2 [Example 24]
- IC50: ≤ 100 nM

Structure (SMILES): O=C(c1cc(F)ccn1)[C@]12Cc3cnn(-c4ccc(F)cc4)c3C=C1CC[C@H](N(CC(F)F)S(=O)(=O)c1ccc(F)cc1)C2 [Example 25]
- IC50: ≤ 100 nM

Structure (SMILES): Cn1cc(S(=O)(=O)C[C@H]2CCC3=Cc4c(cnn4-c4ccc(F)cc4)C[C@]3(C(=O)c3cc(Cl)ccn3)C2)cn1 [Example 26]
- IC50: ≤ 100 nM
